US5624906A, “Oral hygiene compositions comprising heteroatom containing alkyl aldonamide compounds” (Lever Brothers Company, Division of Conopco, Inc., priority 1994, dated 1997)
Read-outs that look alike come from different tables or passages of the source.

Experiments:
[1] = Krafft point; type: physicochemical; conditions: 0.1% in water
Description: The temperature at and above which surfactants begin to form micelles instead of precipitates is referred to as the Krafft point (Tk) and at this temperature the solubility of a surfactant becomes equal to its CMC (numerical value at which micelles are formed).
The Krafft point was measured by preparing 650 ml of a 0.1% or 1.0% dispersion of aldonamide in water by weight. If the surfactant was soluble at room temperature, the solution was slowly cooled to 0° C. […] (less than zero). If it precipitated out of solution, the temperature at which precipitation occurs was taken as the Krafft point.
If the surfactant was insoluble at room temperature, the dispersion was slowly heated until the solution became homogeneous. It was then slowly cooled until precipitation occurred. The temperature at which the surfactant precipitates out of solution upon cooling was taken as the Krafft point.

[2] = Water solubility (statements); type: physicochemical
[3] = Critical micelle concentration, Wilhelmy plate method; type: physicochemical; conditions: 60 °C
Description: The critical micelie concentration (CMC) is defined as the concentration at which a surfactant forms micelles in aqueous solution. Micellization is the preferred interfacial phenomena, since certain surfactant benefits such as detergency (the solubilization of soils), foaming, wetting or emulsification depend on the formation of these aggregates in solution.
The CMC value of C8 /C10 oxypropyl D-gluconamide was determined by plotting surface tension as a function of log(concentration) and extrapolating linear points to obtain an intersection point. The concentration at this point was taken as the CMC. The technique used was the Wilhelmy plate method and the instrument used was a Lauda Auto-Tensiometer. While wishing not to be bound to theory, it is believed that surfactants with low CMC values form micelles more readily at lower concentrations than those with high CMC values.

[4] = 25 °C; cited from earlier work
[5] = Effectiveness of adsorption (surface excess concentration, Gibbs equation); type: physicochemical
Description: The surface excess concentration at surface saturation (Γmax) is defined as a measure of the effectiveness of surfactant adsorption at the water/air interface and represents the maximum value to which adsorption can be obtained. Effectiveness of adsorption is related to the interfacial area occupied by the surfactant molecule. The smaller the effective cross-sectional area of a surfactant at the interface, the greater its effectiveness of adsorption. The effectiveness of adsorption is an important factor in determining surfactant properties such as detergency, foaming, wetting or emulsification. While not wishing to be bound by theory, it is believed that surfactants that absorb effectively at the interface tend have tightly packed coherent interfacial films and often provide better surfactant benefits than those with loosely packed noncoherent films. The effectiveness of adsorption of C8 /C10 oxypropyl D-gluconamide was determined using the Gibbs equation given as: […]
(∂γ/∂log[Conc])T

[6] = cited from earlier work
[7] = Effectiveness in reducing surface tension (surface pressure at CMC); type: physicochemical; conditions: 60 °C
Description: As mentioned before, surface tension reduction depends on the replacement of water molecules at the interface by surfactant molecules, therefore the effectiveness of a surfactant in reducing interfacial surface tension should reflect the saturated concentration of surfactant at the interface relative to that in bulk liquid phase. During this process the surface tension of water steadily decreases as bulk phase surfactant concentration increases. This will continue until the concentration reaches the critical micelle concentration (CMC), above which the surface tension remains nearly unchanged and the interface is saturated with surfactant. The surface tension at the CMC is therefore very close to the minimum interfacial tension or maximum surface pressure that the system can achieve. The surface pressure at this point, IIcmc, is a suitable measure of the effectiveness of a surfactant in reducing surface tension and is given as:
IIcmc =20+2.3nRT(Γmax) log[CMC/C20 ]
n=1 which represents the number of ions whose surface concentration changes with the change in liquid phase surfactant concentration.
CMC/C20 =is the ratio of the critical micelie concentration to the bulk phase surfactant concentration necessary to reduce the surface tension of water by 20 dyn/cm.

[8] = cited from earlier work; remark: listed apart in the source
[9] = Clarity of prototype surfactant compositions (Example 87); type: physicochemical; conditions: room temperature, 6 months
Description: The prototype shampoo composition is as follows:
(§1) The above formulations were prepared by admixing the above ingredients in listed order and heating the mixture to about 80° C. with rapid stirring. The mixture was then cooled to about 40° C., placed in a clear jar and stored at room temperature for 6 months.

[10] = Efficiency in surface tension reduction (pC20); type: physicochemical; conditions: 60 °C
Description: Since surface tension reduction depends on the replacement of water molecules at the interface by surfactant molecules, the efficiency of a surfactant in reducing interfacial tension should reflect the concentration of surfactant at the interface relative to that in bulk liquid phase. […] This is defined as the negative logarithm of the bulk phase surfactant concentration necessary to reduce the surface tension of water by 20 dyn/cm and is given as:
C(-Δγ=20) =C20 is the bulk phase surfactant concentration necessary to reduce the surface tension of water by 20 dyn/cm.
In general, pC20 values are usually close to the minimum concentration needed to saturate the interface with surfactant molecules.

[11] = Viscosity enhancement of sodium/ammonium lauryl sulfate compositions (formulation Example 86); type: physicochemical; conditions: 4.0% thickener, 2395/22
[12] = tested on: zein
Description: The zein solubilization assay was developed to determine the biological effects of surfactants on the skin. The protein is normally in soluble in water, but can be brought into solution by interaction with surfactants. The extent of zein dissolved is related to the irritation potential (M. J. Schwinger, Kolloid-Z. Z. Poly., 233, 848, 1969). The greater the zein solubilization, the greater the irritation potential of that surfactant on the skin.
Thus, a 1% solution of surfactant (30 mls) was added to 1.5 g of zein and stirred at room temperature for 1 hour. Residual zein was collected and dried to constant weight. Differences between starting and residual weights were used to calculate % zein solubilized.

[13] = Packing parameter / micellar shape; type: physicochemical
Description: A theory of miceliar structure, based upon the geometry of various micelie shapes and the space occupied by the surfactant has been disclosed by J. N. Israelachvili, D. J. Mitchell and B. W. Ninham in the J. Chem. Soc. Faraday Trans. 2, 1525, 72, (1976) which is given as the packing parameter (p).
VT=V(CH3) +(nc -1)V(CH2) and represents the volume occupied by the hydrophobic groups in the miceIlar core at a given temperature.
1c =1.50+1.26 nc Å and represents the length of the hydrophobic group in the core.
am =area per molecule or the cross-sectional area occupied by the hydrophilic group at the interface.

[14] = Surface tension at the water/air interface; type: physicochemical; conditions: 60 °C
Description: An important characteristic feature that surfactants have is the tendency for them to absorb at the water/air interface in an oriented manner, thereby altering the interfacial free energy of that surface. The surface free energy per unit area or surface tension (T), is a measure of this work and may be considered as the minimum amount of work required to bring sufficient surfactant molecules to the surface.
The surface tension (t) value of C8 /C10 oxypropyl D-gluconamide was determined and is set forth below: […]

[15] = Viscosity of sodium lauryl sulfate compositions (Example 88); type: physicochemical; conditions: for Viscosity: 22° C.
Description: The prototype surfactant composition is as follows:
as §1
It is well known that the viscosity of a liquid composition comprising of anionic surfactant can be modified by the addition of inorganic salts, such as sodium chloride. However, in the absence of an organic modifier, high levels of salt may be necessary to achieve the required viscosity which may lead to problems of storage at cold temperature or even salting out certain ingredients. In practice, however, the viscosity of a liquid composition is modified by the simultaneous addition of thickener and small amounts of inorganic salt (viscosity cobuilder). The combined effect is greater than either one alone. The viscosity of the above prototype surfactant composition comprising various amounts of heteroatom containing alkyl aldonamide compound is as follows: […]

[16] = Foam stability and enhancement of sodium/ammonium lauryl sulfate, Ross-Miles (Example 86); type: physicochemical; conditions: 45° C., 4.0% foam stabilizer in sodium/ammonium lauryl sulfate composition
Description: The results were compared to identical compositions comprising petrochemically derived foam stabilizing agents, in particular, alkanolamides and alcohol ethoxylates. The prototype surfactant composition is as follows:
The compositions were prepared by admixing the ingredients in listed order with rapid stirring at 45--50° C. Foam stability and enhancement were measured at 0.1% based on sodium and ammonium lauryl sulfate (0.16% total solids) at 45° C. and 0 or 120 parts per million (ppm) hardness calcium:magnesium ion 2:1.

[17] = Foam stability and enhancement, Ross-Miles method (Example 85); type: physicochemical; conditions: triolein/calcium stearate 1 g/L, 10:90 mole % with C12 LAS, 35° C., read after 30 minutes
Description: The triolein/calcium stearate mixture was dispersed to the above solutions using a high speed shear mixer at 60° C. and then cooled to 35 ° C. The triolein/calcium stearate mixture represents an extreme type of antifoam behavior found in sebum soil.
In the Ross-Miles method, 200 mL of a surfactant solution contained in a pipette of specified dimensions with a 2.9-mm-i.d. orifice is allowed to fall 90 cm onto 50 mL of the same solution contained in a cylindrical vessel maintained at a given temperature by means of a water jacket. The height of the foam produced in the cylindrical vessel is read after 30 minutes has elapsed.
The foam stability and enhancement of the heteroatom containing alkyl aldonamides was further determined using a 10:90 mole percent solution of C8 /C10 oxypropyl D-gluconamide (C8 C10 OPG): sodium dodecyl benzene sulfonate (C12 LAS) and compared to identical solutions of dodecyl D-gluconamide (C12 Gluc): sodium dodecyl benzene sulfonate in the presence and absence of the triolein/calcium stearate antifoam.

CCCCCCCCCCCCNC(=O)[C@H](O)[C@@H](O)[C@H](O)[C@H](O)CO [C12 D-Gluconamide, dodecyl D-gluconamide]
Krafft Point (0.1%) [1]: 91 °C
water solubility (in words) [2]: insoluble in water
CMC (in words) [3]: None (Insoluble)

CCCCCCCCCCCCOCCOCCOCCOCCOCCOCCOCCOCCO [Dodecylocta(oxyethylene) Ether]
pC20 [4]: 5.20
Γmax (surface excess concentration at surface saturation) ([5]; 60 °C, estimated by extrapolating a linear line): 2.40 × 10^-10 mole/cm^2
Γmax (surface excess concentration at surface saturation) ([6]; 25 °C): 2.52 × 10^-10 mole/cm^2
Γmax (surface excess concentration at surface saturation) ([6]; 40 °C): 2.46 × 10^-10 mole/cm^2
Πcmc (surface pressure) ([7]; estimated by extrapolating a linear line): 36.3 dyn/cm
Πcmc (surface pressure) ([8]; 25 °C): 37.2 dyn/cm
Πcmc (surface pressure) ([8]; 40 °C): 37.3 dyn/cm

C8 /C10 oxypropyl D-gluconamide
Appearance ([9]; 3.0% in […] sodium lauryl sulfate): Clear
Appearance ([9]; 4.0% in […] sodium lauryl sulfate): Clear
Appearance ([9]; 5.0% in […] sodium lauryl sulfate): Clear
Krafft Point (0.1%) [1]: 48 °C
slope of a plot of γ versus log[Conc] ([5]; T=333.15 K): -24.57 ergs/cm^2
pC20 [10]: 4.78
increase of viscosity from its normal viscosity [11]: 109 times
% Zein Solubilized [12]: 6%
1a (length of the hydrophobic group in the core) ([13]; T=333.15 K): 17.5 Å
micelles predicted from packing parameter ([13]; aqueous media): cylindrical to lameliar micelles
CMC/C20 [7]: 5.7
Πcmc (surface pressure) [7]: 38.5 dyn/cm
Surface tension γ [14]: 29.2 dyn/cm
Viscosity Increase ([15]; 1.0% thickener): 13 x
Viscosity ([15]; 1.0% thickener): 200 Centipoise
Viscosity Increase ([15]; 2.0% thickener): 27 x
Viscosity ([15]; 2.0% thickener): 400 Centipoise
Viscosity Increase ([15]; 3.0% thickener): 80 x
Viscosity ([15]; 3.0% thickener): 1200 Centipoise
Viscosity Increase ([15]; 4.0% thickener): 148 x
Viscosity ([15]; 4.0% thickener): 2220 Centipoise
Viscosity Increase ([15]; 5.0% thickener): 860 x
Viscosity ([15]; 5.0% thickener): 12900 Centipoise

cocoamide monoethanolamine [Cocoamide MEA]
Final FH after 60 Min. ([16]; 0 ppm hardness): 70 mm
Final FH after 60 Min. ([16]; 120 ppm hardness): 53 mm

sodium dodecyl benzene sulfonate [C12 LAS]
Foam Height, With Antifoam [17]: 61 mm
